Reference: ChEMBL document CHEMBL4033624, “Synthesis and evaluation of adenosine containing 3-arylfuran-2(5H)-ones as tyrosyl-tRNA synthetase inhibitors” (Eur J Med Chem, 2017)
In brackets after ≈: the same amount, converted by molar mass.

Experiments:
[1] = Inhibition of TyrRS (unknown origin) expressed in Escherichia coli using L-[ring-3,5-3H] tyrosine as substrate preincubated for 10 mins followed by substrate addition measured by liquid scintillation counting method; design: species or system Bacteria
[2] = tested on: Escherichia coli; test: Antibacterial activity against Escherichia coli ATCC 8739 after 4 to 5 hrs by MTT assay; assay type: functional
[3] = tested on: Pseudomonas aeruginosa; test: Antibacterial activity against Pseudomonas aeruginosa ATCC 9027 after 4 to 5 hrs by MTT assay; assay type: functional
[4] = tested on: Staphylococcus aureus; test: Antibacterial activity against Staphylococcus aureus ATCC 6538 after 4 to 5 hrs by MTT assay; assay type: functional

| Structure (SMILES) | IC50 [1] | MIC50 [2] | MIC50 [3] | MIC50 [4] |
| --- | --- | --- | --- | --- |
| CC1(C)O[C@@H]2[C@H](O1)[C@@H](CNC(=O)COC1=C(c3ccccc3Cl)C(=O)OC1)O[C@H]2n1cnc2c(N)ncnc21 | 24.3 µM | 15.8 mg/L (≈ 28.4 µM) | 25.6 mg/L (≈ 46 µM) | 30.3 mg/L (≈ 54.4 µM) |
| Nc1ncnc2c1ncn2[C@@H]1O[C@H](CNC(=O)COC2=C(c3ccc(F)cc3)C(=O)OC2)[C@@H](O)[C@H]1O | 31.7 µM | 39.2 mg/L (≈ 78.3 µM) | 47.4 mg/L (≈ 94.7 µM) | 72.7 mg/L (≈ 145 µM) |
| CC1(C)O[C@@H]2[C@H](O1)[C@@H](CNC(=O)COC1=C(c3ccc(F)cc3)C(=O)OC1)O[C@H]2n1cnc2c(N)ncnc21 | > 100 µM | > 100 mg/L | > 100 mg/L | > 100 mg/L |
| CC1(C)O[C@@H]2[C@H](O1)[C@@H](CNC(=O)COC1=C(c3ccc(Cl)cc3)C(=O)OC1)O[C@H]2n1cnc2c(N)ncnc21 | 22.7 µM | 20.3 mg/L (≈ 36.4 µM) | 21.4 mg/L (≈ 38.4 µM) | 39.6 mg/L (≈ 71.1 µM) |
| CCOc1ccc(C2=C(OCC(=O)NC[C@H]3O[C@@H](n4cnc5c(N)ncnc54)[C@H](O)[C@@H]3O)COC2=O)cc1OCC | > 100 µM | > 100 mg/L | > 100 mg/L | > 100 mg/L |
| Nc1ncnc2c1ncn2[C@@H]1O[C@H](CNC(=O)c2cccc(Br)c2)[C@@H](O)[C@H]1O | 94.5 µM | > 100 mg/L | > 100 mg/L | > 100 mg/L |
| COc1ccc(C2=C(OCC(=O)NC[C@H]3O[C@@H](n4cnc5c(N)ncnc54)[C@@H]4OC(C)(C)O[C@@H]43)COC2=O)cc1OC | > 100 µM | > 100 mg/L | > 100 mg/L | > 100 mg/L |
| Nc1ncnc2c1ncn2[C@@H]1O[C@H](CNC(=O)COC2=C(c3ccc(Br)cc3)C(=O)OC2)[C@@H](O)[C@H]1O | 29.1 µM | 46.6 mg/L (≈ 83 µM) | 40.5 mg/L (≈ 72.1 µM) | 75.1 mg/L (≈ 134 µM) |
| CC1(C)O[C@@H]2[C@H](O1)[C@@H](CNC(=O)COC1=C(c3ccc(Br)cc3)C(=O)OC1)O[C@H]2n1cnc2c(N)ncnc21 | 92.6 µM | 98.6 mg/L (≈ 164 µM) | > 100 mg/L | > 100 mg/L |
| CC1(C)O[C@@H]2[C@H](O1)[C@@H](CNC(=O)c1cccc(Br)c1)O[C@H]2n1cnc2c(N)ncnc21 | > 100 µM | > 100 mg/L | > 100 mg/L | > 100 mg/L |
| COc1ccc(C2=C(OCC(=O)NC[C@H]3O[C@@H](n4cnc5c(N)ncnc54)[C@H](O)[C@@H]3O)COC2=O)cc1OC | > 100 µM | > 100 mg/L | > 100 mg/L | > 100 mg/L |
| CC1(C)O[C@@H]2[C@H](O1)[C@@H](CNC(=O)COC1=C(c3cccc(F)c3)C(=O)OC1)O[C@H]2n1cnc2c(N)ncnc21 | 56 µM | 83.6 mg/L (≈ 155 µM) | 82.8 mg/L (≈ 153 µM) | > 100 mg/L |
| CCOc1ccc(C2=C(OCC(=O)NC[C@H]3O[C@@H](n4cnc5c(N)ncnc54)[C@@H]4OC(C)(C)O[C@@H]43)COC2=O)cc1OCC | > 100 µM | > 100 mg/L | > 100 mg/L | > 100 mg/L |
| CC1(C)O[C@@H]2[C@H](O1)[C@@H](CNC(=O)COC1=C(c3ccc(Cl)cc3Cl)C(=O)OC1)O[C@H]2n1cnc2c(N)ncnc21 | 83.8 µM | > 100 mg/L | 90.9 mg/L (≈ 154 µM) | > 100 mg/L |
| CC1(C)O[C@@H]2[C@H](O1)[C@@H](CNC(=O)COC1=C(c3ccc(Cl)c(Cl)c3)C(=O)OC1)O[C@H]2n1cnc2c(N)ncnc21 | 33.4 µM | 60.2 mg/L (≈ 102 µM) | 63.7 mg/L (≈ 108 µM) | 90.7 mg/L (≈ 153 µM) |
| Nc1ncnc2c1ncn2[C@@H]1O[C@H](CNC(=O)COC2=C(c3ccc(Cl)cc3Cl)C(=O)OC2)[C@@H](O)[C@H]1O | 26.1 µM | 29.4 mg/L (≈ 53.3 µM) | 33.6 mg/L (≈ 60.9 µM) | 55.4 mg/L (≈ 100 µM) |
| O=C(O)c1cn(C2CC2)c2cc(N3CCNCC3)c(F)cc2c1=O [CIPROFLOXACIN] | – | 0.1 mg/L (≈ 0.302 µM) | 0.64 mg/L (≈ 1.93 µM) | – |
| CC1(C)S[C@@H]2[C@H](NC(=O)Cc3ccccc3)C(=O)N2[C@H]1C(=O)[O-].[Na+] [PENICILLIN G SODIUM] | – | – | – | 0.57 mg/L |
